Laboratory results reported in US10894784B2, “Heteroarylbenzimidazole compounds” (BAYER PHARMA AKTIENGESELLSCHAFT, priority 2015, dated 2021).

molecular target: TBK1 (Homo sapiens (Human), UniProt Q9UHD2); test: TBK1 low ATP kinase assay (in vitro assay 1); type: biochemical; conditions: in vitro assay 1, read-out: TBK1 low ATP kinase assay IC50
Sequence (Q9UHD2 whole entry): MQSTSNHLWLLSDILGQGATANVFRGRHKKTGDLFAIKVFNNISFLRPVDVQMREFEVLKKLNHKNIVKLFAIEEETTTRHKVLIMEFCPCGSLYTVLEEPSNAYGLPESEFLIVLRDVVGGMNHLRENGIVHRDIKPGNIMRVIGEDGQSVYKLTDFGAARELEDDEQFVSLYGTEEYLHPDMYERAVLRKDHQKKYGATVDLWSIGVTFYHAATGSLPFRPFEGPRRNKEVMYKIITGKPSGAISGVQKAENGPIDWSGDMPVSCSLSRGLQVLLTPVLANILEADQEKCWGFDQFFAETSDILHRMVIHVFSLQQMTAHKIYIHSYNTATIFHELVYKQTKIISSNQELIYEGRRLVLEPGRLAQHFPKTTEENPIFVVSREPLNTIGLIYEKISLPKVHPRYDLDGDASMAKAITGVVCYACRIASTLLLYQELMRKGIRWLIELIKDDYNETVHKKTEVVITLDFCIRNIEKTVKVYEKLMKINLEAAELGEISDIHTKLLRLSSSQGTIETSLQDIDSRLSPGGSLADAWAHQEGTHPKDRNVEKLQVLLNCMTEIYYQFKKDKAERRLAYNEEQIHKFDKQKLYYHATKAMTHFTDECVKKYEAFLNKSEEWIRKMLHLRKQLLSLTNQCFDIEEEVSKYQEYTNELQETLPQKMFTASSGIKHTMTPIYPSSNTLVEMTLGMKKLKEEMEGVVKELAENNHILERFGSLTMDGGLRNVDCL

Structure (SMILES) | IC50 [nM]
CCOc1ncnc(-c2ccc3nc(Nc4cc(CN5CCN(C(=O)CC(F)(F)F)CC5)ccn4)[nH]c3c2)c1OC [Example 167.02, 1-{4-[(2-{[6-(6-ethoxy-5-methoxypyrimidin-4-yl)-1H-benzimidazol-2-yl]amino}pyridin-4-yl)methyl]piperazin-1-yl}-3,3,3-trifluoropropan-1-one] | 35
O=C(C1CCC1)N1CCN(Cc2ccnc(Nc3nc4ccc(-c5ccnc(C(F)(F)F)n5)cc4[nH]3)c2)CC1 [Example 27.02, cyclobutyl(4-{[2-({6-[2-(trifluoromethyl)pyrimidin-4-yl]-1H-benzimidazol-2-yl}amino)pyridin-4-yl]methyl}piperazin-1-yl)methanone] | 220
CSc1ncc(-c2ccc3nc(Nc4cc(CN5CCN(C(=O)C6CC6)CC5)ccn4)[nH]c3c2)cn1 [Example 45.05.03, cyclopropyl(4-{[2-({6-[2-(methylsulfanyl)pyrimidin-5-yl]-1H-benzimidazol-2-yl}amino)pyridin-4-yl]methyl}piperazin-1-yl)methanone] | 840
COc1cc(-c2ccc3nc(Nc4cc(C(C)N5CCN(C(=O)C6CC6)CC5)ccn4)[nH]c3c2)ncn1 (racemic) [Example 34.02.02, (rac)-cyclopropyl{4-[1-(2-{[6-(6-methoxypyrimidin-4-yl)-1H-benzimidazol-2-yl]amino}pyridin-4-yl)ethyl]piperazin-1-yl}methanone] | 9.1
O=C(CC(F)(F)F)N1CCN(Cc2ccnc(Nc3nc4ccc(-c5ncnc6sccc56)cc4[nH]3)c2)CC1 [Example 105.01, 3,3,3-trifluoro-1-{4-[(2-{[6-(thieno[2,3-d]pyrimidin-4-yl)-1H-benzimidazol-2-yl]amino}pyridin-4-yl)methyl]piperazin-1-yl}propan-1-one] | 270
CCOc1c(-c2ccncc2OC)ccc2nc(Nc3cc(CN4CCN(C(=O)CC(F)(F)F)CC4)ccn3)[nH]c12 [Example 51.01, 1-{4-[(2-{[7-ethoxy-6-(3-methoxypyridin-4-yl)-1H-benzimidazol-2-yl]amino}pyridin-4-yl)methyl]piperazin-1-yl}-3,3,3-trifluoropropan-1-one] | 148
CC(C)(C)OC(=O)N1CCN(Cc2ccnc(Nc3nc4ccc(-c5cc(N6CCCCC6)ncn5)cc4[nH]3)c2)CC1 [Example 145.01, tert-butyl 4-{[2-({6-[6-(piperidin-1-yl)pyrimidin-4-yl]-1H-benzimidazol-2-yl}amino)pyridin-4-yl]methyl}piperazine-1-carboxylate] | 13
CC(c1ccnc(Nc2nc3ccc(-c4cc(OCC(C)(F)F)ncn4)cc3[nH]2)c1)N1CCN(C(=O)CC(F)(F)F)CC1 (single isomer, unassigned) [Example 165.02, 1-(4-{(1R or 1S)-1-[2-({6-[6-(2,2-difluoropropoxy)pyrimidin-4-yl]-1H-benzimidazol-2-yl}amino)pyridin-4-yl]ethyl}piperazin-1-yl)-3,3,3-trifluoropropan-1-one] | 1.71
CC(c1ccnc(Nc2nc3ccc(-c4cc(C(F)F)ncn4)cc3[nH]2)c1)N1CCN(C(=O)OC(C)(C)C)CC1 (single isomer, unassigned) [Example 174.01, tert-butyl 4-{(1R or 1S)-1-[2-({6-[6-(difluoromethyl)pyrimidin-4-yl]-1H-benzimidazol-2-yl}amino)pyridin-4-yl]ethyl}piperazine-1-carboxylate] | 11.1
Cn1cc(-c2ccc3nc(Nc4cc(CN5CCN(C(=O)C6CC6)CC5)ccn4)[nH]c3c2)cn1 [Example 37.03, cyclopropyl{4-[(2-{[6-(1-methyl-1H-pyrazol-4-yl)-1H-benzimidazol-2-yl]amino}pyridin-4-yl)methyl]piperazin-1-yl}methanone] | 52.7
Cc1noc(-c2ccc3nc(Nc4cc(CN5CCN(C(=O)C(C)(C)O)CC5)ccn4)[nH]c3c2)n1 [Example 101.16, 2-hydroxy-2-methyl-1-{4-[(2-{[6-(3-methyl-1,2,4-oxadiazol-5-yl)-1H-benzimidazol-2-yl]amino}pyridin-4-yl)methyl]piperazin-1-yl}propan-1-one] | 190
CN(C)c1nccnc1-c1ccc2nc(Nc3cc(CN4CCN(C(=O)CC(F)(F)F)CC4)ccn3)[nH]c2c1 [Example 196.02, 1-(4-{[2-({6-[3-(dimethylamino)pyrazin-2-yl]-1H-benzimidazol-2-yl}amino)pyridin-4-yl]methyl}piperazin-1-yl)-3,3,3-trifluoropropan-1-one] | 1830
O=C(CC(F)(F)F)N1CCN(Cc2ccnc(Nc3nc4ccc(-c5c(F)cncc5Cl)cc4[nH]3)c2)CC1 [Example 132.02, 1-{4-[(2-{[6-(3-chloro-5-fluoropyridin-4-yl)-1H-benzimidazol-2-yl]amino}pyridin-4-yl)methyl]piperazin-1-yl}-3,3,3-trifluoropropan-1-one] | 190
O=C(CC(F)(F)F)N1CCN(Cc2ccnc(Nc3nc4ccc(-c5cnc(Cl)cn5)cc4[nH]3)c2)CC1 [Example 140.02, 1-{4-[(2-{[6-(5-chloropyrazin-2-yl)-1H-benzimidazol-2-yl]amino}pyridin-4-yl)methyl]piperazin-1-yl}-3,3,3-trifluoropropan-1-one] | 540
CCn1cc(-c2ccc3nc(Nc4cc(CN5CCN(C(=O)C6CC6)CC5)ccn4)[nH]c3c2OCC(C)C)cn1 [Example 52.02, cyclopropyl{4-[(2-{[6-(1-ethyl-1H-pyrazol-4-yl)-7-(2-methylpropoxy)-1H-benzimidazol-2-yl]amino}pyridin-4-yl)methyl]piperazin-1-yl}methanone] | 36.9
CN(C)c1cnc(-c2ccc3nc(Nc4cc(CN5CCN(C(=O)CC(F)(F)F)CC5)ccn4)[nH]c3c2)cn1 [Example 144.02, 1-(4-{[2-({6-[5-(dimethylamino)pyrazin-2-yl]-1H-benzimidazol-2-yl}amino)pyridin-4-yl]methyl}piperazin-1-yl)-3,3,3-trifluoropropan-1-one] | 350
CN(C)c1ncnc(-c2ccc3nc(Nc4cc(CN5CCN(C(=O)CC(F)(F)F)CC5)ccn4)[nH]c3c2)c1F [Example 162.02, 1-(4-{[2-({6-[6-(dimethylamino)-5-fluoropyrimidin-4-yl]-1H-benzimidazol-2-yl}amino)pyridin-4-yl]methyl}piperazin-1-yl)-3,3,3-trifluoropropan-1-one] | 20
CC(C)(O)c1cc(-c2ccc3nc(Nc4cc(CN5CCN(C(=O)CC(F)(F)F)CC5)ccn4)[nH]c3c2)ncn1 [Example 96.02, 3,3,3-trifluoro-1-(4-{[2-({6-[6-(2-hydroxypropan-2-yl)pyrimidin-4-yl]-1H-benzimidazol-2-yl}amino)pyridin-4-yl]methyl}piperazin-1-yl)propan-1-one] | 22
COc1cnccc1-c1ccc2nc(Nc3cc(CN4CCN(C(=O)C(C)(C)C)CC4)ccn3)[nH]c2c1 [Example 04.06, 1-{4-[(2-{[6-(3-methoxypyridin-4-yl)-1H-benzimidazol-2-yl]amino}pyridin-4-yl)methyl]piperazin-1-yl}-2,2-dimethylpropan-1-one] | 30.2
O=C(CC(F)(F)F)N1CCN(Cc2ccnc(Nc3nc4ccc(-c5cnn(CC6CC6)c5)cc4[nH]3)c2)CC1 [Example 39.01.02, 1-(4-{[2-({6-[1-(cyclopropylmethyl)-1H-pyrazol-4-yl]-1H-benzimidazol-2-yl}amino)pyridin-4-yl]methyl}piperazin-1-yl)-3,3,3-trifluoropropan-1-one] | 5.89
COc1cncnc1-c1ccc2nc(Nc3cc(C(C)N4CCN(C(=O)C5CC5)CC4)ccn3)[nH]c2c1 (single isomer, unassigned) [Example 35.03.03.B, cyclopropyl{4-[(1S or 1R)-1-(2-{[6-(5-methoxypyrimidin-4-yl)-1H-benzimidazol-2-yl]amino}pyridin-4-yl)ethyl]piperazin-1-yl}methanone] | 31.7
CC(C)(C)OC(=O)N1CCN(Cc2ccnc(Nc3nc4ccc(-c5cc(OCC6(C(F)(F)F)CC6)ncn5)cc4[nH]3)c2)CC1 [Example 158.01, tert-butyl 4-[(2-{[6-(6-{[1-(trifluoromethyl)cyclopropyl]methoxy}pyrimidin-4-yl)-1H-benzimidazol-2-yl]amino}pyridin-4-yl)methyl]piperazine-1-carboxylate] | 160
CC(c1ccnc(Nc2nc3ccc(-c4cnn(CC(F)F)c4)cc3[nH]2)c1)N1CCN(C(=O)C2CC2)CC1 (single isomer, unassigned) [Example 87.02, cyclopropyl(4-{(1R or 1S)-1-[2-({6-[1-(2,2-difluoroethyl)-1H-pyrazol-4-yl]-1H-benzimidazol-2-yl}amino)pyridin-4-yl]ethyl}piperazin-1-yl)methanone] | 2
COc1ncccc1-c1ccc2nc(Nc3cc(CN4CCN(C(=O)CC5CC5)CC4)ccn3)[nH]c2c1 [Example 15.02, 2-cyclopropyl-1-{4-[(2-{[6-(2-methoxypyridin-3-yl)-1H-benzimidazol-2-yl]amino}pyridin-4-yl)methyl]piperazin-1-yl}ethanone] | 401
CC(c1ccnc(Nc2nc3ccc(-c4cnn(CC5CC5)c4)cc3[nH]2)c1)N1CCN(C(=O)C2CC2)CC1 (single isomer, unassigned) [Example 39.02.03, cyclopropyl(4-{(1R or 1S)-1-[2-({6-[1-(cyclopropylmethyl)-1H-pyrazol-4-yl]-1H-benzimidazol-2-yl}amino)pyridin-4-yl]ethyl}piperazin-1-yl)methanone] | 1.66
O=C(CC(F)(F)F)N1CCN(Cc2ccnc(Nc3nc4ccc(-c5cc(NC6CCC6)ncn5)cc4[nH]3)c2)CC1 [Example 152.02, 1-(4-{[2-({6-[6-(cyclobutylamino)pyrimidin-4-yl]-1H-benzimidazol-2-yl}amino)pyridin-4-yl]methyl}piperazin-1-yl)-3,3,3-trifluoropropan-1-one] | 0.48
CC(C)(C)OC(=O)N1CCN(Cc2ccnc(Nc3nc4ccc(-c5cc(NC6CC6)ncn5)cc4[nH]3)c2)CC1 [Example 82.01, tert-butyl 4-{[2-({6-[6-(cyclopropylamino)pyrimidin-4-yl]-1H-benzimidazol-2-yl}amino)pyridin-4-yl]methyl}piperazine-1-carboxylate] | 3.6
